According to US9694019B2, “Compositions and methods for treating bone diseases and broken bones” (BRIGHAM YOUNG UNIVERSITY, priority 2011, dated 2017):
Residues, ends and D or L forms follow the SMILES beside them. *: point of attachment. Cbz = O=C(OCc1ccccc1)*; OtBu = CC(C)(C)O*

Test system: primary human MSC cells
Assay: BMP regulation: gene expression array (SABiosciences PAHS-026) in primary human MSC cells
Type: cell-based
Settings: hMSC, 8 hours
Experimental: SABisosciences custom array plates (Cat#PAHS-026) were used to measure BMP expression. These array plates are validated for efficiency when used at recommended conditions and reagents. On day 1, primary human MSC cells were plated at 200,000 cell/well using 6-well plates with 10% FBS, Penicillin and Streptomycin 10 mL per Liter, in recommended media. Only early passages of cells were used.
On day 2, cells were treated with compounds dissolved in DMSO diluted 1:1000 or more to avoid solvent effects. A non-treated negative control group was evaluated (FIG. 1, “Control Group”) along with a positive control group containing PS1 at 0.1 μM (FIG. 1, “Group 1”). Final testing concentration for CSA-90 was 5.0 μM (FIG. 1, “Group 2”), 2.5 μM (FIG. 1, “Group 3”), and 1.2 μM (FIG. 1, “Group 4”). Treatment lasted 8 hours, followed by RNA isolation using a QIAGEN Miniprep Kit. RNA was measured at 260/280 nm using NanoDrop2000 and normalized to 250 ng. cDNA preparation was done using QIAGEN First Strand kit.

[1] = PS1 0.1 μM, v. untreated control

CC[C@H](C)[C@H](NC(=O)OCc1ccccc1)C(=O)N[C@@H](CCC(=O)OC(C)(C)C)C(=O)N[C@@H](C)C(=O)N[C@H](C=O)CC(C)C [PS1, reference compound] (Cbz-IE(OtBu)AL-aldehyde)
up-regulation of BMP-2 mRNA compared to the control (0.1 μM): 3 fold
Fold Up-Regulation ACTB (Actin, beta) [1]: −1.4183 fold
Fold Up-Regulation AHSG (Alpha-2-HS-glycoprotein) [1]: −1.3295 fold
Fold Up-Regulation ALPL (Alkaline phosphatase, liver/bone/kidney) [1]: −1.4723 fold
Fold Up-Regulation AMBN (Ameloblastin) [1]: −1.9272 fold
Fold Up-Regulation AMELY (Amelogenin, Y-linked) [1]: −1.8864 fold
Fold Up-Regulation ANXA5 (Annexin A5) [1]: 1.1236 fold
Fold Up-Regulation BGLAP (Bone gamma-carboxyglutamate (gla) protein) [1]: −1.3879 fold
Fold Up-Regulation BGN (Biglycan) [1]: −1.1323 fold
Fold Up-Regulation BMP-1 (Bone morphogenetic protein 1) [1]: −1.1214 fold
Fold Up-Regulation BMP-2 (Bone morphogenetic protein 2) [1]: 3.0816 fold
Fold Up-Regulation BMP-3 (Bone morphogenetic protein 3) [1]: −1.1038 fold
Fold Up-Regulation BMP-4 (Bone morphogenetic protein 4) [1]: −2.2148 fold
Fold Up-Regulation BMP-5 (Bone morphogenetic protein 5) [1]: 1.124 fold
Fold Up-Regulation BMP-6 (Bone morphogenetic protein 6) [1]: 2.642 fold
Fold Up-Regulation CALCR (CALCITONIN RECEPTOR) [1]: 1.124 fold
Fold Up-Regulation CD36 (CD36 molecule, thrombospondin receptor) [1]: −1.0202 fold
Fold Up-Regulation CDH11 (Cadherin 11, type 2, OB-cadherin) [1]: −2.2309 fold
Fold Up-Regulation COL1A1 (Collagen, type I, alpha 1) [1]: −1.1935 fold
Fold Up-Regulation COL1A2 (Collagen, type I, alpha 2) [1]: −1.0689 fold
Fold Up-Regulation COL2A1 (Collagen, type II, alpha 1) [1]: −1.4242 fold
Fold Up-Regulation COL3A1 (Collagen, type III, alpha 1) [1]: −1.0806 fold
Fold Up-Regulation COL4A3 (Collagen, type IV, alpha 3) [1]: −1.0619 fold
Fold Up-Regulation COL5A1 (Collagen, type V, alpha 1) [1]: 1.0927 fold
Fold Up-Regulation COL10A1 (Collagen, type X, alpha 1) [1]: 1.5421 fold
Fold Up-Regulation COL11A1 (Collagen, type XI, alpha 1) [1]: −1.4875 fold
Fold Up-Regulation COL12A1 (Collagen, type XII, alpha 1) [1]: 1.0767 fold
Fold Up-Regulation COL14A1 (Collagen, type XIV, alpha 1) [1]: −1.5279 fold
Fold Up-Regulation COL15A1 (Collagen, type XV, alpha 1) [1]: 1.2144 fold
Fold Up-Regulation COMP (Cartilage oligomeric matrix protein) [1]: 1.2648 fold
Fold Up-Regulation CSF2 (Colony stimulating factor 2) [1]: 6.205 fold
Fold Up-Regulation CSF3 (Colony stimulating factor 3) [1]: −2.4364 fold
Fold Up-Regulation CTSK (Cathepsin K) [1]: −1.2679 fold
Fold Up-Regulation DMP1 (Dentin matrix acidic phosphoprotein 1) [1]: 1.124 fold
Fold Up-Regulation DSPP (Dentin sialophosphoprotein) [1]: 1.124 fold
Fold Up-Regulation EGF (Epidermal growth factor) [1]: −1.2529 fold
Fold Up-Regulation EGFR (Epidermal growth factor receptor) [1]: −1.8532 fold
Fold Up-Regulation ENAM (Enamelin) [1]: 1.124 fold
Fold Up-Regulation FGF1 (Fibroblast growth factor 1) [1]: −1.4948 fold
Fold Up-Regulation FGF2 (Fibroblast growth factor 2) [1]: 1.3957 fold
Fold Up-Regulation FGF3 (Fibroblast growth factor 3) [1]: −1.3257 fold
Fold Up-Regulation FGFR1 (Fibroblast growth factor receptor 1) [1]: −1.0999 fold
Fold Up-Regulation FGFR2 (Fibroblast growth factor receptor 2) [1]: −1.2644 fold
Fold Up-Regulation FLT1 (Fms-related tyrosine kinase 1) [1]: −2.7821 fold
Fold Up-Regulation FN1 (Fibronectin 1) [1]: 1.099 fold
Fold Up-Regulation GAPDH (Glyceraldehyde-3-phosphate dehydrogenase) [1]: 1.161 fold
Fold Up-Regulation GDF10 (Growth differentiation factor 10) [1]: 1.124 fold
Fold Up-Regulation ICAM1 (Intercellular adhesion molecule 1) [1]: 1.5053 fold
Fold Up-Regulation IGF1 (Insulin-like growth factor 1) [1]: 1.5067 fold
Fold Up-Regulation IGF1R (Insulin-like growth factor 1 receptor) [1]: −1.0699 fold
Fold Up-Regulation IGF2 (Insulin-like growth factor 2) [1]: −1.2388 fold
Fold Up-Regulation ITGA1 (Integrin, alpha 1) [1]: 1.325 fold
Fold Up-Regulation ITGA2 (Integrin, alpha 2) [1]: −1.0945 fold
Fold Up-Regulation ITGA3 (Integrin, alpha 3) [1]: −1.8917 fold
Fold Up-Regulation ITGAM (Integrin, alpha M) [1]: 1.3319 fold
Fold Up-Regulation ITGB1 (Integrin, beta 1) [1]: 1.1614 fold
Fold Up-Regulation MMP2 (Matrix metallopeptidase 2) [1]: −1.1194 fold
Fold Up-Regulation MMP8 (Matrix metallopeptidase 8) [1]: 3.7453 fold
Fold Up-Regulation MMP9 (Matrix metallopeptidase 9) [1]: −1.2449 fold
Fold Up-Regulation MMP10 (Matrix metallopeptidase 10) [1]: 1.3516 fold
Fold Up-Regulation MSX1 (Msh homeobox 1) [1]: 6.2916 fold
Fold Up-Regulation NFKB1 (Nuclear factor of kappa light polypeptide gene enhancer in B-cells 1) [1]: −1.1038 fold
Fold Up-Regulation PDGFA (Platelet-derived growth factor alpha polypeptide) [1]: 1.0421 fold
Fold Up-Regulation PHEX (Phosphate regulating endopeptidase homolog, Xlinked) [1]: 1.9871 fold
Fold Up-Regulation RUNX2 (Runt-related transcription factor 2) [1]: −3.542 fold
Fold Up-Regulation SCARB1 (Scavenger receptor class B, member 1) [1]: 1.1791 fold
Fold Up-Regulation SERPIN H1 (Serpin peptidase inhibitor, clade H, member 1) [1]: 1.4764 fold
Fold Up-Regulation SMAD1 (SMAD family member 1) [1]: −1.2813 fold
Fold Up-Regulation SMAD2 (SMAD family member 2) [1]: 1.0462 fold
Fold Up-Regulation SMAD3 (SMAD family member 3) [1]: −2.771 fold
Fold Up-Regulation SMAD4 (SMAD family member 4) [1]: 1.3022 fold
Fold Up-Regulation STATH (Statherin) [1]: −2.2674 fold
Fold Up-Regulation TFIP11 (Tuftelin interacting protein 11) [1]: 1.1041 fold
Fold Up-Regulation TGFB1 (Transforming growth factor, beta 1) [1]: −1.2644 fold
Fold Up-Regulation TGFB2 (Transforming growth factor, beta 2) [1]: 1.0081 fold
Fold Up-Regulation TGFB3 (Transforming growth factor, beta 3) [1]: 2.2234 fold
Fold Up-Regulation TGFBR1 (Transforming growth factor, beta receptor 1) [1]: 2.0059 fold
Fold Up-Regulation TGFBR2 (Transforming growth factor, beta receptor II) [1]: −2.3752 fold
Fold Up-Regulation TNF (Tumor necrosis factor) [1]: 1.8055 fold
Fold Up-Regulation TUFT1 (Tuftelin 1) [1]: 1.4326 fold
Fold Up-Regulation TWIST1 (Twist homolog 1) [1]: −2.197 fold
Fold Up-Regulation VCAM1 (Vascular cell adhesion molecule 1) [1]: −2.406 fold
Fold Up-Regulation VDR (Vitamin D (1,25-dihydroxyvitamin D3) receptor) [1]: −1.5248 fold
Fold Up-Regulation VEGFA (Vascular endothelial growth factor A) [1]: −1.0162 fold
Fold Up-Regulation VEGFB (Vascular endothelial growth factor B) [1]: −1.1191 fold
